Measurements published in patent US12102643B2, “Aqueous pharmaceutical formulation of hydrocortisone sodium phosphate and monothioglycerol” (ANTARES PHARMA, INC., priority 2022, dated 2024).

Experiments:
[1] = Genotoxicity assessment (ICH M7)
[2] = Stability study of HCP prototype formulations in PFS at 25° C. and 40° C. (appearance, pH, assay and related substances by stability indicating HPLC); conditions: accelerated storage 40° C., effect of pH
[3] = Forced degradation of hydrocortisone sodium phosphate API under stress conditions (0.1 N HCl, 0.1 N NaOH, dry heat); assay type: physicochemical; conditions: 3 stress conditions: 0.1 N HCl, qualitative
Experimental: To develop this method, Hydrocortisone sodium phosphate API was kept under stress conditions. These stress conditions included treatment with 0.1 N HCl, 0.1 N NaOH and dry heat. This was performed to investigate the nature of API and its compatibility with the stress conditions. It also helped generate degradation products to assess the specificity of the HPLC method under development. Information on degradation products and the conditions used to generate them was used to optimize the method for better resolution of such degradation products on chromatogram. FIGS. 3A-3C show chromatograms of HCP under stress conditions.
The proportions in which the degradants formed depended on the stress condition. Stress studies performed on the API were done for qualitative purpose only.

[4] = Room temperature stability of crystalline as compared to amorphous drug substance (water content, Karl Fischer); assay type: physicochemical; conditions: for Assay / Total Impurities: Room temperature
Excerpt: The Drug Substance (DS) Hydrocortisone Sodium Phosphate (HSP) is a sodium salt of phosphate ester of hydrocortisone. The high-water solubility of HSP enables the development of aqueous injectable solutions. The DS meets the requirements of USP monograph, “Hydrocortisone sodium phosphate, USP,” except for loss on drying (LOD) specification, instead the Karl Fischer method is used to test water content which meets the British Pharmacopoeia specification. This is because the crystalline form obtained through the manufacturing process is a crystalline hydrate. To meet the USP LOD specification of NMT 5%, the manufacturing process would need to involve a lyophilization step which leads to the formation of an amorphous form of HSP. […] The water content test method utilizes the British Pharmacopoiea (BP) HSP monograph semi-micro water content method instead of the less specific USP HSP monograph water content Loss on Drying method. […]

Assay ([4]; Time 0) | Total Impurities ([4]; Time 0) | Assay ([4]; Time 3 mo.) | Total Impurities ([4]; Time 3 mo.) | Assay ([4]; Time 6 mo.) | Total Impurities ([4]; Time 6 mo.) | Compound | other results
– | – | – | – | – | – | C[C@]12CCC(=O)C=C1CC[C@@H]1[C@@H]2[C@@H](O)C[C@@]2(C)[C@H]1CC[C@]2(O)C(=O)COP(=O)(O)O [Hydrocortisone sodium phosphate] | genotoxicity assessment [1]: not a genotoxic product; susceptibility to hydrolysis [2]: prone to general acid-catalyzed hydrolysis at pH<7.5
– | – | – | – | – | – | Hydrocortisone sodium phosphate | forced degradation outcome [3]: formation of Hydrocortisone, other common degradants
– | – | – | – | – | – | C[C@]12CCC(=O)C=C1CC[C@@H]1[C@@H]2[C@@H](O)C[C@@]2(C)[C@H]1CC[C@]2(O)C(=O)COP(=O)(O)O [hydrocortisone sodium phosphate] | hygroscopicity ([4]; room temperature): highly hygroscopic; stability compared to crystalline form ([4]; room temperature): not stable as compared to crystalline form
100.9% | 0.00% | 101.4% | 0.06% | 99.5% | 0.00% | C[C@]12CCC(=O)C=C1CC[C@@H]1[C@@H]2[C@@H](O)C[C@@]2(C)[C@H]1CC[C@]2(O)C(=O)COP(=O)(O)O [Hydrocortisone Sodium Phosphate] | –
97.8% | 0.20% | 99.0% | 1.1% | 96.5% | 1.5% | C[C@]12CCC(=O)C=C1CC[C@@H]1[C@@H]2[C@@H](O)C[C@@]2(C)[C@H]1CC[C@]2(O)C(=O)COP(=O)([O-])[O-].[Na+].[Na+] | –
